Usually Kd stands for the equilibrium constant for the complex coming apart. Low values mean higher affinity, high ones lower affinity.

In this test the target is T1, flavohemoglobin (gFlHb) (Giardia duodenalis, UniProt E2RTZ4).
T1 construct: gene hmpA; recombinant gFlHb fused to an N-terminal His6-tag
The test is described as follows: UV-visible spectral titration of ferric heme at […] nm (also stimulates NADH oxidase activity). The class given is binding.

T1 sequence (E2RTZ4 whole entry, the tested form may be a part): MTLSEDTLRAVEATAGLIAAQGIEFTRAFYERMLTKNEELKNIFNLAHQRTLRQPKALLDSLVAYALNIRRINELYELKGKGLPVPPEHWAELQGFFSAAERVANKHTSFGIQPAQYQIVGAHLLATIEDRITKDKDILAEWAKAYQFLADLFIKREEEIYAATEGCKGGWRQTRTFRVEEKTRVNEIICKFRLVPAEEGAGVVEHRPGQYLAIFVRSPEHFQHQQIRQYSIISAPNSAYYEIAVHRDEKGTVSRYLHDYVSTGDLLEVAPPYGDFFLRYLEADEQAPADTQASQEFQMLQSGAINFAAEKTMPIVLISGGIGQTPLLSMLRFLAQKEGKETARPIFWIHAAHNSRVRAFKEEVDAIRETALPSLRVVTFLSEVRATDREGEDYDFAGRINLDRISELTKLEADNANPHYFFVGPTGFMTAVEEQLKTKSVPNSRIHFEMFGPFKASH

As to `CCCSc1ccc2nc(NC(=O)OC)[nH]c2c1` [ABZ, albendazole], the Kd was 0.023 ± 0.009 µM. Consider `CCC[S+]([O-])c1ccc2[nH]c(NC(=O)OC)nc2c1` (centres unmarked) [ABZSO, albendazole sulfoxide], for which binding was put at a Kd of 0.019 ± 0.008 µM.

(Values after PMC9514659, “Giardia duodenalis: Flavohemoglobin is involved in drug biotransformation and resistance to albendazole” (PLoS Pathogens, 2022).)
